“And” between values parts separate entries of the source, which are not always exact repeats. Equal entries are not always repeated. Structures can show the parent of a compound that is named as a salt.
How the values were obtained:
[1] = tested on: Sesbania exaltata (hemp sesbania, SEBEX); assay: Field trial, post-emergence weed control (% visual control), SEBEX; assay type: in vivo
Experimental: (§1) These trials were conducted under field conditions in multiple states in the United States, including but not limited to Arkansas, Illinois, Indiana, Minnesota, Mississippi,
(§2) Nebraska, Ohio, Oklahoma, Texas, South Carolina and South Dakota. […] Treatments were applied with small plot backpack sprayers, using pressurized air or carbon dioxide (CO2) as propellant. Pressure varied from 22-50 pounds per square inch (psi), with spray tips typically of a Flat Fan type applying water diluent at 15 gallons per acre (GPA). Boom sizes varied from 6.3-10 ft in width. Treatments were applied to soybean, cotton, corn or fallow crop land. Weed sizes varied, but all treatments were applied as post-emergence treatments to weeds from 2 leaf to 2 tiller growth stages varying from 2 to 15 inches in height. The weed spectrum included, but was not limited to, Amaranthus palmeri S. Wats. (Palmer amaranth, AMAPA), Conyza canadensis (L.) Cronq. (horseweed, ERICA), Salsola tragus L. (Russian thistle, SASKR) and Sesbania exaltata (hemp sesbania, SEBEX).
(§3) The 2,4-D-choline salt formulation was a 456 g ae/L SL. […] All treatments were mixed in water at appropriate formulated product rates to achieve the desired rates as shown based on a unit area of application (hectare). Treatments were rated at 2 to 28 days after application (DAA) as compared to the untreated control plants. The trial sites had naturally occurring populations of weeds. The treated plots and control plots were rated blind at various intervals after application.
(§4) Colby's equation was used to determine the herbicidal effects expected from the mixtures (Colby, S. R. Calculation of the synergistic and antagonistic response of herbicide combinations. Weeds 1967, 15, 20-22). A t-test (alpha=0.05) between Colby predictions and observed combinations was used to test for significant differences indicating synergy or antagonism using replicate data.
(§5) The following equation was used to calculate the expected activity of mixtures containing two active ingredients, A and B:
(§6) Expected=A+B−(A×B/100) • A=observed efficacy of active ingredient A at the same concentration as used in the mixture; • B=observed efficacy of active ingredient B at the same concentration as used in the mixture.

AAD12 Soybean (GLXMA) = assay: Field crop tolerance trial in 2,4-D- and glufosinate-tolerant soybean (% visual injury, chlorosis, growth inhibition)
Experimental: as §1, §2
2,4-D- and glufosinate-tolerant soybeans, corn and cotton and optionally a glyphosate trait in a breeding (CP4 EPSPS) or a molecular stack (2mEPSPS) were used in all tolerance trials.
as §3, with “application. […]” for “application.”

[2] = tested on: Salsola tragus L. (Russian thistle, SASKR); assay: Field trial, post-emergence weed control (% visual control), SASKR; assay type: in vivo
Experimental: as §1, §2, §3, §4, §5, §6

[3] = tested on: Amaranthus palmeri S. Wats. (Palmer amaranth, AMAPA); assay: Field trial, post-emergence weed control (% visual control), AMAPA; assay type: in vivo
Experimental: as §1, §2, §3, §4, §5, §6

[4] = tested on: Conyza canadensis (L.) Cronq. (horseweed, ERICA); assay: Field trial, post-emergence weed control (% visual control), ERICA; assay type: in vivo
Experimental: as §1, §2, §3, §4, §5, §6

SMILES: O=C(O)COc1ccc(Cl)cc1Cl [2,4-D-Choline salt, 2-hydroxy-N,N,N-trimethylethanaminium 2-(2,4-dichlorophenoxy)acetate]
- Mean % weed control ([1]; 8 DAA, 800 g ae/ha): 32.5%
- Mean % weed control ([1]; 16 DAA, 800 g ae/ha): 42.5%
- Mean % weed control ([1]; 23 DAA, 800 g ae/ha): 38.8%
- Mean % crop chlorosis (AAD12 Soybean (GLXMA); 2 DAA, 2130 g ae/ha): 0.0% and 2.3%
- Mean % crop injury (AAD12 Soybean (GLXMA); 2 DAA, 2130 g ae/ha): 3.5% and 5.0%
- Mean % crop chlorosis (AAD12 Soybean (GLXMA); 3 DAA, 1065 g ae/ha): 0.0%
- Mean % crop injury (AAD12 Soybean (GLXMA); 3 DAA, 1065 g ae/ha): 0.3%
- Mean % crop chlorosis (AAD12 Soybean (GLXMA); 3 DAA, 2130 g ae/ha): 0.0% and 1.3% and 0.8% and 0.5%
- Mean % crop injury (AAD12 Soybean (GLXMA); 3 DAA, 2130 g ae/ha): 0.3%
- Mean % crop chlorosis (AAD12 Soybean (GLXMA); 4 DAA, 1065 g ae/ha): 0.0%
- Mean % crop injury (AAD12 Soybean (GLXMA); 4 DAA, 1065 g ae/ha): 0.0%
- Mean % crop chlorosis (AAD12 Soybean (GLXMA); 4 DAA, 2130 g ae/ha): 0.0% and 0.7%
- Mean % crop injury (AAD12 Soybean (GLXMA); 4 DAA, 2130 g ae/ha): 1.0%
- Mean % crop injury (AAD12 Soybean (GLXMA); 6 DAA, 1065 g ae/ha): 4.0%
- Mean % crop injury (AAD12 Soybean (GLXMA); 6 DAA, 2130 g ae/ha): 4.0%
- Mean % crop chlorosis (AAD12 Soybean (GLXMA); 7 DAA, 1065 g ae/ha): 0.0%
- Mean % crop chlorosis (AAD12 Soybean (GLXMA); 7 DAA, 2130 g ae/ha): 0.0% and 1.7% and 1.3% and 3.0%
- Mean % crop growth inhibition (AAD12 Soybean (GLXMA); 7 DAA, 2130 g ae/ha): 1%
- Mean % crop injury (AAD12 Soybean (GLXMA); 7 DAA, 2130 g ae/ha): 4.0% and 13.3%
- Mean % crop chlorosis (AAD12 Soybean (GLXMA); 8 DAA, 1065 g ae/ha): 0.0%
- Mean % crop chlorosis (AAD12 Soybean (GLXMA); 8 DAA, 2130 g ae/ha): 0.0%
- Mean % crop chlorosis (AAD12 Soybean (GLXMA); 9 DAA, 1065 g ae/ha): 0.0%
- Mean % crop injury (AAD12 Soybean (GLXMA); 9 DAA, 1065 g ae/ha): 0.0%
- Mean % crop chlorosis (AAD12 Soybean (GLXMA); 9 DAA, 2130 g ae/ha): 0.0%
- Mean % crop injury (AAD12 Soybean (GLXMA); 9 DAA, 2130 g ae/ha): 0.0%
- Mean % crop chlorosis (AAD12 Soybean (GLXMA); 13 DAA, 1065 g ae/ha): 0.0%
- Mean % crop injury (AAD12 Soybean (GLXMA); 13 DAA, 1065 g ae/ha): 2.0%
- Mean % crop chlorosis (AAD12 Soybean (GLXMA); 13 DAA, 2130 g ae/ha): 0.0%
- Mean % crop injury (AAD12 Soybean (GLXMA); 13 DAA, 2130 g ae/ha): 3.3%
- Mean % crop chlorosis (AAD12 Soybean (GLXMA); 14 DAA, 1065 g ae/ha): 0.0%
- Mean % crop injury (AAD12 Soybean (GLXMA); 14 DAA, 1065 g ae/ha): 3.0% and 0.0%
- Mean % crop chlorosis (AAD12 Soybean (GLXMA); 14 DAA, 2130 g ae/ha): 0.0% and 0.8% and 1.3%
- Mean % crop growth inhibition (AAD12 Soybean (GLXMA); 14 DAA, 2130 g ae/ha): 0%
- Mean % crop injury (AAD12 Soybean (GLXMA); 14 DAA, 2130 g ae/ha): 2.3%
- Mean % crop chlorosis (AAD12 Soybean (GLXMA); 15 DAA, 2130 g ae/ha): 0.0%
- Mean % crop growth inhibition (AAD12 Soybean (GLXMA); 15 DAA, 2130 g ae/ha): 0%
- Mean % crop injury (AAD12 Soybean (GLXMA); 15 DAA, 2130 g ae/ha): 0.0%
- Mean % weed control ([2]; 14 DAA, 1065 g ae/ha): 67.5%
- Mean % weed control ([2]; 21 DAA, 1065 g ae/ha): 65.0%
- Mean % weed control ([3]; 7 DAA, 800 g ae/ha): 47.5%
- Mean % weed control ([3]; 10 DAA, 1065 g ae/ha): 55.0%
- Mean % weed control ([3]; 13 DAA, 1065 g ae/ha): 45.0%
- Mean % weed control ([3]; 16 DAA, 800 g ae/ha): 62.5%
- Mean % weed control ([3]; 21 DAA, 1065 g ae/ha): 38.8%
- Mean % weed control ([3]; 22 DAA, 800 g ae/ha): 48.8%
- Mean % weed control ([4]; 7 DAA, 1065 g ae/ha): 40.0%
- Mean % weed control ([4]; 13 DAA, 1065 g ae/ha): 40.0%
- Mean % weed control ([4]; 22 DAA, 1065 g ae/ha): 40.0%
- Mean % weed control ([4]; 28 DAA, 1065 g ae/ha): 30.0%

SMILES: CP(=O)(O)CCC(N)C(=O)O (stereo not shown) [Glufosinate-ammonium, ammonium (3-amino-3-carboxypropyl)(methyl)phosphinate]
- Mean % weed control ([1]; 8 DAA, 542 g ae/ha): 73.8%
- Mean % weed control ([1]; 16 DAA, 542 g ae/ha): 78.8%
- Mean % weed control ([1]; 23 DAA, 542 g ae/ha): 65.0%
- Mean % weed control ([2]; 14 DAA, 542 g ae/ha): 12.5%
- Mean % weed control ([2]; 21 DAA, 542 g ae/ha): 6.3%
- Mean % weed control ([3]; 7 DAA, 542 g ae/ha): 80.0%
- Mean % weed control ([3]; 10 DAA, 542 g ae/ha): 54.3%
- Mean % weed control ([3]; 13 DAA, 542 g ae/ha): 75.0%
- Mean % weed control ([3]; 16 DAA, 542 g ae/ha): 65.0%
- Mean % weed control ([3]; 21 DAA, 542 g ae/ha): 51.3%
- Mean % weed control ([3]; 22 DAA, 542 g ae/ha): 56.3%
- Mean % weed control ([4]; 7 DAA, 542 g ae/ha): 75.0%
- Mean % weed control ([4]; 13 DAA, 542 g ae/ha): 85.0%
- Mean % weed control ([4]; 22 DAA, 542 g ae/ha): 80.0%
- Mean % weed control ([4]; 28 DAA, 542 g ae/ha): 98.0%

From patent publication US20150157022A1, “S[…] CONTROL AND IMPROVED CROP TOLERANCE FROM COMBINATIONS OF 2,4-D-CHOLINE AND G[…] 2,4-D- AND GLUFOSINATE-TOLERANT SOYBEANS, CORN, COTTON” (Dow AgroSciences LLC, priority 2013, published 2015)
